Test results from ChEMBL document CHEMBL4400553, “Semisynthesis of epoxy-pimarane diterpenoids from kirenol and their FXa inhibition activities” (Bioorg Med Chem, 2019).

Target: Coagulation factor X (Homo sapiens, UniProt P00742)
Experiment: Inhibition of human factor Xa using Z-D-Arg-Gly-Arg-pNA.2HCl as substrate preincubated for 15 mins followed by substrate addition by UV absorption analysis

Coagulation factor X, sequence (P00742 41-179 limits assumed): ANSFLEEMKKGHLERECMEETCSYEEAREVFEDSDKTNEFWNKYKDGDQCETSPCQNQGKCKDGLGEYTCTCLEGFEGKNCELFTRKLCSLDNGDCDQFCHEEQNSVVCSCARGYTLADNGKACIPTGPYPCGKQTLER
Coagulation factor X, sequence (P00742 235-488 limits assumed): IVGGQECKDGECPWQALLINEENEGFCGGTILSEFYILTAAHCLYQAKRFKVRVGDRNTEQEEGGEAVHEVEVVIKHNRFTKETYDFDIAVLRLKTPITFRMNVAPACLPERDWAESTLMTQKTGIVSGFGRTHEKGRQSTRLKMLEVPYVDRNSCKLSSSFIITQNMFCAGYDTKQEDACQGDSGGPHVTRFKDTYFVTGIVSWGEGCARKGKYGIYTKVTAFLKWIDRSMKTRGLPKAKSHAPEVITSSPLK

SMILES	IC50 [µM]
C[C@@]1(CO)C[C@@H](O)C[C@]2(C)[C@@H]1CC[C@@]13O[C@H](CO)[C@@](C)(CC[C@@H]21)[C@H]3Br	7.9
CC1(C)OC[C@@H]([C@@]2(C)CC[C@@H]3C4(CC[C@@H]5[C@](C)(CO)C[C@@H](O)C[C@@]35C)OC42)O1 (some centres not stated)	18.5
C[C@@]1(CO)C[C@@H](O)C[C@@]2(C)C3=C(CC[C@H]12)[C@H]1OC[C@H](O)[C@@]1(C)CC3	27.9
C[C@@]1(CO)C[C@@H](O)C[C@@]2(C)[C@@H]3CC[C@@]4(C)[C@H](OC[C@@H]4O)C3=CC[C@H]12	17.8
CC1(C)OC[C@@H]([C@]2(C)C=C3CC[C@@H]4[C@](C)(CO)C[C@@H](O)C[C@@]4(C)[C@@H]3CC2)O1	7.2
C[C@]12CC[C@@H]3[C@](CC[C@@H]4[C@](C)(CO)C[C@@H](O)C[C@]43C)(C1)OC2	7.4

Now those with a lower IC50, led by results:

IC50 [µM]	SMILES
6.1	C[C@]12CC[C@@H]3[C@](CC[C@@H]4[C@](C)(CO)C[C@@H](O)C[C@]43C)(C1)O[C@H]2CO
1.7	C[C@]12CC[C@@H]3[C@](CC[C@@H]4[C@](C)(CO)C[C@@H](O)C[C@]43C)(C1)OC2=O
0.22	C[C@@]1(CO)C[C@@H](O)C[C@@]2(C)[C@@H]3CC[C@](C)(C(=O)O)C=C3CC[C@H]12
4.7	C[C@@]1(CO)C[C@@H](O)C[C@]2(C)[C@@H]1CC[C@@]13O[C@@H](CO)[C@@](C)(CC[C@@H]21)[C@H]3Br
0.96	C[C@@]1(CO)C=C2CC[C@@H]3[C@](C)(CO)C[C@@H](O)C[C@@]3(C)[C@@H]2CC1
2.5	C[C@@]1(CO)C[C@@H](O)C[C@@]2(C)[C@@H]3CC[C@](C)([C@@H](O)CO)C=C3CC[C@H]12 [KIRENOL]
